According to article PMC5823845 (Bioorganic & Medicinal Chemistry, 2018):

Experiments:
Cyp 450 3A4 = target: T1, Cyp 450 3A4 (Homo sapiens, UniProt P08684); assay: Cytochrome P450 inhibition in human liver microsomes; format: in vitro ADME; settings: human liver microsomes
T1 construct: tissue Cyprotex (CRO); host or cells: human liver microsomes
Procedure: (§1) The five main cytochrome P450 isoforms (CYP1A, CYP2C9, CYP2C19, CYP2D6 and CYP3A4) were investigated in the P450 inhibition assay. […] At the end of the incubation, the formation of the metabolite was monitored by LC-MS/MS (or fluorescence in the case of CYP1A) at each of the test compound concentrations.

Cyp 450 2C9 = target: T2, Cyp 450 2C9 (Homo sapiens, UniProt P11712); assay: as above; format: in vitro ADME; settings: human liver microsomes
T2 construct: tissue Cyprotex (CRO); host or cells: human liver microsomes
Procedure: as §1

Cyp 450 2D6 = target: T3, Cyp 450 2D6 (Homo sapiens, UniProt P10635); assay: as above; format: in vitro ADME; settings: human liver microsomes
T3 construct: tissue Cyprotex (CRO); host or cells: human liver microsomes
Procedure: as §1

Cyp 450 2C19 = target: T4, Cyp 450 2C19 (Homo sapiens, UniProt P33261); assay: as above; format: in vitro ADME; settings: human liver microsomes
T4 construct: tissue Cyprotex (CRO); host or cells: human liver microsomes
Procedure: as §1

Cyp 450 1A2 = target: T5, Cyp 450 1A2 (Homo sapiens, UniProt P05177); assay: as above; format: in vitro ADME; settings: human liver microsomes
T5 construct: tissue Cyprotex (CRO); host or cells: human liver microsomes
T5 sequence (P05177 1-516): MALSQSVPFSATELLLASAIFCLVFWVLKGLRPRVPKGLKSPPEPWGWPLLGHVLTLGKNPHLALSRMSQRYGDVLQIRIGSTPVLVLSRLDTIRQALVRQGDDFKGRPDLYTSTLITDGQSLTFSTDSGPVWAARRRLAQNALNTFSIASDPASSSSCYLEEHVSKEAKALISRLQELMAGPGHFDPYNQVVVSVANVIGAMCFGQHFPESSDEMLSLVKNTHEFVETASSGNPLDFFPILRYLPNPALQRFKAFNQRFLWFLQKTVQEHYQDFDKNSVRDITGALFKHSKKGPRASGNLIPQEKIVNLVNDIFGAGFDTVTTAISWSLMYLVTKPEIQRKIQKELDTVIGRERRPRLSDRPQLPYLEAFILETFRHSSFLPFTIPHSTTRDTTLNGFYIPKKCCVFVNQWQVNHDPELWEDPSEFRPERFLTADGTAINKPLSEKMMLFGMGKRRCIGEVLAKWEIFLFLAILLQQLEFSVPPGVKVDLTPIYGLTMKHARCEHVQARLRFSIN
Procedure: as §1

PK studies in rats = format: in vivo, Sprague-Dawley rats
Procedure: The Test Items were orally administered at a dose of 10 mg/kg and a dosing volume of 10 mL/kg. […] The Test Items were intravenously administered at a dose of 0.5 mg/kg and a dosing volume of 2 mL/kg. […] Whole blood concentrations of the Test Items were measured using LC-MS/MS and selected pharmacokinetic parameters calculated using Pharsight WinNonLin software. For furthers details see Supplementary data file.

human RXR α = target: T6, human RXR α (Homo sapiens, UniProt P19793); assay: Retinoid X Receptor radioligand binding assay, [3H] 9-cis-retinoic acid; settings: human recombinant receptor
T6 construct: Panlabs Eurofins Pharma Discovery Services (CRO)
T6 sequence (P19793 1-462): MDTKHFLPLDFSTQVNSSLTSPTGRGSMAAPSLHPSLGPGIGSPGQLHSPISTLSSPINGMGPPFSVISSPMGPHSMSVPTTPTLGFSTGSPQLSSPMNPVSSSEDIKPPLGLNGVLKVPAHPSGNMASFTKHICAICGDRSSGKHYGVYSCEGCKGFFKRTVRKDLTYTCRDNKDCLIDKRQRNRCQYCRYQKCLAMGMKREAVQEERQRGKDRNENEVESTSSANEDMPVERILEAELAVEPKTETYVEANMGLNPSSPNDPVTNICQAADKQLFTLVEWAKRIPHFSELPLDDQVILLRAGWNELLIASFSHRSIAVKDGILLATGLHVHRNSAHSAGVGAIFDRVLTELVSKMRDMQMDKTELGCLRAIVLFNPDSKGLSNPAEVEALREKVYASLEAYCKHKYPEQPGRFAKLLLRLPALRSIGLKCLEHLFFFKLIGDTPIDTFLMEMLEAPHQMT
Procedure: (§2) [22] The Retinoid X Receptor RXRα and RXRβ radioligand binding assays using [^3H] 9-cis-retinoic acid and the respective human recombinant receptors, were carried out by the CRO Panlabs Eurofins Pharma Discovery Services UK Limited, Gemini Crescent, Dundee Technology Park, Dundee, DD2 1SW.

human RXR β = target: T7, human RXR β (Homo sapiens, UniProt P28702); assay: as above; settings: human recombinant receptor
T7 construct: Panlabs Eurofins Pharma Discovery Services (CRO)
T7 sequence (P28702 1-533): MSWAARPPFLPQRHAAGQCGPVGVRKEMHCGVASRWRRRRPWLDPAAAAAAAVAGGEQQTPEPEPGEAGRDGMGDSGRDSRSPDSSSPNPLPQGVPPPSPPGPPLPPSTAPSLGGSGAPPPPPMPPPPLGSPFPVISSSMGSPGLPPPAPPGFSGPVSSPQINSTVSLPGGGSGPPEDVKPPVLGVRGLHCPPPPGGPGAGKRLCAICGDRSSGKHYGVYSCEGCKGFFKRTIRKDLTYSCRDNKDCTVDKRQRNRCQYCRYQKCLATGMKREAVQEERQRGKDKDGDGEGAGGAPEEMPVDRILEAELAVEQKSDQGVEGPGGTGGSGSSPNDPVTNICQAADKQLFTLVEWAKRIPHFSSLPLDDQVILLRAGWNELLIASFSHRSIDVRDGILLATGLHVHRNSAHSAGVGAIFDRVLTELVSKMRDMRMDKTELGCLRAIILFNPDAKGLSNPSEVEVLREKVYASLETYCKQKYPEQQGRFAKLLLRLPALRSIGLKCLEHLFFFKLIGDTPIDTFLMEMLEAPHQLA
Procedure: as §2

[1] = test system: Salmonella Typhimurium (TA98, TA100, and TA1535); assay: Ames test; format: cell-based; settings: three bacterial strains; presence and absence of S9
Text: For the first two assays, photometry is used for detection.

[2] = Stability and intrinsic clearance in cryopreserved hepatocytes; settings: dog
Procedure: Reactions were terminated by addition of 100 μL of acetonitrile containing carbamazepine as the analytical internal standard. Samples were centrifuged and the supernatant fractions analysed by LC-MS/MS. The instrument responses (peak heights) were referenced to the zero time-point samples (as 100%) in order to determine the percentage of compound remaining. Ln plots of the % remaining, for each compound, were used to determine the half-life for the hepatocyte incubations.

CHO-K1 cells = assay: In vitro micronucleus test; format: cell-based; settings: presence and absence of S9
Text: Fluorescent imaging was used to obtain the results in the micronucleus test.

HEPG2 cells = assay: High-content cell toxicity screen in HEPG2 cells; format: cell-based; settings: concentrations up to 50 μM
Procedure: Effect on the cell or mitochondrial viability markers in HepG2 cells were tested for compounds up to 50 μM. HepG2 cells were plated on 96-well tissue culture treated black walled clear bottomed polystyrene plates at 0:3 _ 104 cells in 100_L per well. After 24 hr the cells were dosed with the test compound at a range of concentrations (see Assay Summary for details). At the end of the incubation period, the cells were loaded with the relevant dye/antibody for each cell health marker. The plates were then scanned using an automated fluorescent cellular imager, ArrayScanr VTI (Thermo Scientific Cellomics).

T1 sequence (P08684 whole entry): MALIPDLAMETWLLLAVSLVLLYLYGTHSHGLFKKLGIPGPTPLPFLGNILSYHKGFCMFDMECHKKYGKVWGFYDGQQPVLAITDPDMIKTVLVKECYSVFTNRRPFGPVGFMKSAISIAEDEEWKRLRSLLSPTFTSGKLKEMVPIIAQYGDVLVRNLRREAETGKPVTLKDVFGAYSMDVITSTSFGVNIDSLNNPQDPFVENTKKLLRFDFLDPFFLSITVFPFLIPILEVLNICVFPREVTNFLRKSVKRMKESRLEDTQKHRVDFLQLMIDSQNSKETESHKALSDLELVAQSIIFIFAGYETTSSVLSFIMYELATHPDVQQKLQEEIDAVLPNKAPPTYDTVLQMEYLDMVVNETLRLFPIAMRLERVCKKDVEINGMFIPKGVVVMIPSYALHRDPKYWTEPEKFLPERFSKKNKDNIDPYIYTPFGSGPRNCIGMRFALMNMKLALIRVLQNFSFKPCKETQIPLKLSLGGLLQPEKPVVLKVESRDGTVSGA
T2 sequence (P11712 whole entry): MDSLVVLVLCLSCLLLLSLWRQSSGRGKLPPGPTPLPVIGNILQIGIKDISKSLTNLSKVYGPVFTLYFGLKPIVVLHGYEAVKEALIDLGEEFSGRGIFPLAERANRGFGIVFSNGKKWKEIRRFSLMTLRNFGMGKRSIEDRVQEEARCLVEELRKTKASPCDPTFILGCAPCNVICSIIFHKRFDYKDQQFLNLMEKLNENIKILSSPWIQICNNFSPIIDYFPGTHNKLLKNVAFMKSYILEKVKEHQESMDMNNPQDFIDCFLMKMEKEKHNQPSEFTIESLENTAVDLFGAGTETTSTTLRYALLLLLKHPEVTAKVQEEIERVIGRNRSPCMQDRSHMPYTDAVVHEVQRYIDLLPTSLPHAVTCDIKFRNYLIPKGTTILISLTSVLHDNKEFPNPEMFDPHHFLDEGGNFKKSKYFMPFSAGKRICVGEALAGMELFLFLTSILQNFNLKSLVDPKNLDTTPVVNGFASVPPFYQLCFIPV
T3 sequence (P10635 whole entry): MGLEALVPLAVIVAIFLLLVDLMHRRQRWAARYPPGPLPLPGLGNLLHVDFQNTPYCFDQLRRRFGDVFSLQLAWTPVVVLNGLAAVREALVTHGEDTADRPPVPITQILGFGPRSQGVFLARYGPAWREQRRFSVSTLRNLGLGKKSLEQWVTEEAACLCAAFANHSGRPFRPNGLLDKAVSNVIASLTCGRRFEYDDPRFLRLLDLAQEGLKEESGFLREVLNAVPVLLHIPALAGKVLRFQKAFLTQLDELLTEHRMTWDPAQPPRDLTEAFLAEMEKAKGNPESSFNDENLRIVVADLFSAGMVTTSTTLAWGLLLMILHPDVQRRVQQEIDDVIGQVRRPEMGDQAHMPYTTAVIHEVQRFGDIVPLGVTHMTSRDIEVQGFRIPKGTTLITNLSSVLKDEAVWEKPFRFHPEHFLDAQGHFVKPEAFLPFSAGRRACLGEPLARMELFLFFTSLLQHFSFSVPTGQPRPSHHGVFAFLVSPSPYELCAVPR
T4 sequence (P33261 whole entry): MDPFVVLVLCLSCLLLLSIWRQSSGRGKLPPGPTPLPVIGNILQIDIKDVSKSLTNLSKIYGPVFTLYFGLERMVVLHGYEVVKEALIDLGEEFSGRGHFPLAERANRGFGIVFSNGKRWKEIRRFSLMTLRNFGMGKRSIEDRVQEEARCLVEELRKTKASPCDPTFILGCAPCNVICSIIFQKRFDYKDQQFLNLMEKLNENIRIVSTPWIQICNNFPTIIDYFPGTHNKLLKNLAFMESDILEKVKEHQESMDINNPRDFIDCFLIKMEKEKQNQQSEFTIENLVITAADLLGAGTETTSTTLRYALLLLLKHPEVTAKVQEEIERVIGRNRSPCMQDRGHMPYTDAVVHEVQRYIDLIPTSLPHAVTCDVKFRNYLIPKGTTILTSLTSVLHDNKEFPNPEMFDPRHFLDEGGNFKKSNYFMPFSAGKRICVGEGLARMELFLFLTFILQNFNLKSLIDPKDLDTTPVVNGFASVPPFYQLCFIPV

CCOc1c(Cl)cc(C(=O)Nc2ccc(C(=O)O)c(C)c2)cc1OC(C)C [Compound 56, 4-(3-Chloro-4-ethoxy-5-isopropoxybenzamido)-2-methylbenzoic acid]
IC50 (Cyp 450 3A4): > 25 µM | IC50 (Cyp 450 2C9): > 25 µM | IC50 (Cyp 450 2D6): > 25 µM | IC50 (Cyp 450 2C19): > 25 µM | IC50 (Cyp 450 1A2): > 25 µM | rat pK AUC po (PK studies in rats; 10 mg/kg po, 8% Ethanol/92% PEG-400, n = 4): 70,765 ng·min mL^−1 | rat pK Cl (PK studies in rats; iv 0.5 mg/kg, n = 4): 7 mL/kg/min | bioavailability (PK studies in rats; male, Sprague-Dawley, whole blood, rat, 10 mg/kg po vs 0.5 mg/kg iv, n = 4, read-out: rat pK F%): 40% | IC50 (human RXR α): > 10 µM | IC50 (human RXR β): > 10 µM | Ames test [1]: negative | half-life at 1 μM [2]: > 7.5 h | half-life at 30 μM [2]: > 7.5 h | hepatocyte CLint at 1 μM [2]: < 3 µL/min/1e6 cells | hepatocyte CLint at 30 μM [2]: < 3 µL/min/1e6 cells | in vitro micronucleus test (CHO-K1 cells): negative | effect on cell or mitochondrial viability markers (HEPG2 cells): no effect
